US6673790B1, “Indolin-2-one derivatives, preparation and their use as ocytocin receptor ligands” (Sanofi-Synthelabo, priority 2002, dated 2004)

Tests used:
[1] = target: T1, human uterine oxytocin receptors (Homo sapiens, UniProt P30559); assay: in vitro binding test: displacement of a radioiodinated oxytocin analogue in a membrane preparation
T1 construct: host or cells: membrane preparation
T1 sequence (P30559 1-389): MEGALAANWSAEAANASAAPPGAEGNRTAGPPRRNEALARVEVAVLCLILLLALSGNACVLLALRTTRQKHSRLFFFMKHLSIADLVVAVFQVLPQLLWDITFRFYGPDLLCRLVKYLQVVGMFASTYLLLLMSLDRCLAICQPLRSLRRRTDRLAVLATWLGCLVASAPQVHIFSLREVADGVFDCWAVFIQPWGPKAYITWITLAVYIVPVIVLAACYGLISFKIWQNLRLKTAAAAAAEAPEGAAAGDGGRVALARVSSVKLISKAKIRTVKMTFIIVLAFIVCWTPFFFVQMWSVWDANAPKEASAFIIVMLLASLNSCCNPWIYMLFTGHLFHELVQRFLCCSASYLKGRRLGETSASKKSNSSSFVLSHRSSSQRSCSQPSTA
Method: The compounds according to the invention have formed the subject of biochemical and pharmacological studies. The affinity of the compounds according to the invention for oxytocin receptors was determined in an in vitro binding test using the method described by J. Elands et al. in Eur. Pharmacol., 1987, 147, 192-207. This method consists in studying in vitro the displacement of a radioiodinated oxytocin analogue at the oxytocin receptors in a membrane preparation of human uterine oxytocin receptors. The IC50 values (concentration which inhibits 50% of the binding of the radioiodinated oxytocin analogue to its receptors) are low and vary from 10^−10 to 10^−6 M in the latter test.

[2] = target: human vasopressin V1a receptors (Homo sapiens, UniProt P37288); assay: affinity for vasopressin V1a receptors (method of Thibonnier et al.); assay type: binding; settings: read-out: IC50 with respect to the V1a receptors
Sequence of human vasopressin V1a receptors (P37288 whole entry): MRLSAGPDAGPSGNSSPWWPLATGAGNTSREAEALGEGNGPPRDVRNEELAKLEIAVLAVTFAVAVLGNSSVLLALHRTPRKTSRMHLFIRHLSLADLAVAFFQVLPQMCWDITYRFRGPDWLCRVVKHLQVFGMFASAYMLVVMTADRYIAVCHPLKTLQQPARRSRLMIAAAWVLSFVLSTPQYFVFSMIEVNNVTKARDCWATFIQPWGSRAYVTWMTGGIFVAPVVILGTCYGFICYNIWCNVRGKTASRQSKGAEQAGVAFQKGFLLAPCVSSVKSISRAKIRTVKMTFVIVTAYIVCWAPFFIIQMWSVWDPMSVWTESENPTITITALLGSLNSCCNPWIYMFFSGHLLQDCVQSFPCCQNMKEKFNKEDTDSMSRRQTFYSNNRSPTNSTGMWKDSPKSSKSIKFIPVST
Text: (§1) The affinity of the compounds according to the invention for human vasopressin V1a receptors (method described by M. Thibonnier et al. in J. Biol. Chem., 1994, 269, 3304-3310), V1b receptors (method described by T. Sugimoto et al. in J. Biol. Chem., 1994, 269, 27088-27092) and V2 receptors (method described by M. Birnbaumer et al. in Nature (Lond.), 1992, 357, 333-335) has also been studied. The compounds studied have little or no affinity for the V1a, V1b and V2 receptors.

[3] = target: T2, human vasopressin V1b receptors (Homo sapiens, UniProt P47901); assay: affinity for vasopressin V1b receptors (method of Sugimoto et al.); assay type: binding; settings: read-out: IC50 with respect to the V1b receptors
T2 sequence (P47901 1-424): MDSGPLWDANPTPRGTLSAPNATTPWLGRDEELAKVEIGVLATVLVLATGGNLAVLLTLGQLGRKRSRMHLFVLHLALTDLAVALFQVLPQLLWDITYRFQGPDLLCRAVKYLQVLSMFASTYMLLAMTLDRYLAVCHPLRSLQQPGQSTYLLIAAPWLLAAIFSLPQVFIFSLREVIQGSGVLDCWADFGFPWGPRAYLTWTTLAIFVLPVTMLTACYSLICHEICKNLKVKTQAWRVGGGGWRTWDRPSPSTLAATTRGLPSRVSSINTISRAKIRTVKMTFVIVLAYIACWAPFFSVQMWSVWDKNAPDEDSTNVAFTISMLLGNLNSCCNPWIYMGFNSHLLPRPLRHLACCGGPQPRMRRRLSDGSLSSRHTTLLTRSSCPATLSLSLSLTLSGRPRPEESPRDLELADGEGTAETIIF
Text: as §1

[4] = target: human vasopressin V2 receptors (Homo sapiens, UniProt P30518); assay: affinity for vasopressin V2 receptors (method of Birnbaumer et al.); assay type: binding; settings: read-out: IC50 with respect to the V2 receptors
Sequence of human vasopressin V2 receptors (P30518 whole entry): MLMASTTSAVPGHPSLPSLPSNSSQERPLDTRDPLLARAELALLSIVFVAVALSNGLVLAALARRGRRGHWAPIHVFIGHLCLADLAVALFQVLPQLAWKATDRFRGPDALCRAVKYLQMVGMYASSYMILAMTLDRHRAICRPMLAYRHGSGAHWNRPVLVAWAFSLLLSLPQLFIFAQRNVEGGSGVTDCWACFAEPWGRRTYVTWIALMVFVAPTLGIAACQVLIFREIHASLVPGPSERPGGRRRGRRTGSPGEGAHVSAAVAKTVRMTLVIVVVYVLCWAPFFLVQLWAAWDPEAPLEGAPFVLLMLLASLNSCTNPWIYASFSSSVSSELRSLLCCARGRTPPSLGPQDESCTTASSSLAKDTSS
Text: as §1

[5] = target: T3, cells expressing human oxytocin receptors (Homo sapiens, UniProt P30559); assay: measurement of intracellular calcium, agonist or antagonist nature; assay type: cell-based
T3 sequence (P30559 1-389): T1 sequence (P30559 1-389)
Method: The agonist or antagonist nature of the compounds is determined in vitro in a test for the measurement of intracellular calcium with respect to cells expressing human oxytocin receptors according to the general technique described in Am. J. Physiol., 268 (Heart Circ. Physiol., 37), 1995, H404-H410.

Row | Structure (SMILES) | melting point [°C] | also measured
1 | COCC1CCCN1C(=O)c1ccc(Cl)c(C2(C)C(=O)N(Cc3ccc(OC)cc3OC)c3ccc(Cl)cc32)c1 (stereo not shown) | 98 | 
2 | CCN(C)C(=O)c1ccc(Cl)c(C2(C)C(=O)N(Cc3ccc(OC)cc3OC)c3ccc(Cl)cc32)c1 (stereo not shown) | 166 | 
3 | COc1ccc(CN2C(=O)C(C)(c3cc(C(=O)NC4CCCCC4)ccc3Cl)c3cc(Cl)ccc32)c(OC)c1 (stereo not shown) | 129.8 | 
4 | COc1ccc(CN2C(=O)C(C)(c3cc(C(=O)N(C)C)ccc3Cl)c3cc(Cl)ccc32)c(OC)c1 (stereo not shown) (hydrate or solvate) | 184 | 
5 | CCN(CCOC)C(=O)c1ccc(Cl)c(C2(C)C(=O)N(Cc3ccc(OC)cc3OC)c3ccc(Cl)cc32)c1 (stereo not shown) | 86.3 | 
6 | COc1ccc(CN2C(=O)C(C)(c3cc(CN4CCOCC4)ccc3Cl)c3cc(Cl)ccc32)c(OC)c1 (stereo not shown) | 145 | 
7 | COc1ccc(CN2C(=O)C(C)(c3ccccc3Cl)c3cc(Cl)ccc32)c(OC)c1 (racemic) [Example 1, 5-Chloro-3-(2-chlorophenyl)-1-(2,4-dimethoxybenzyl)-3-methylindolin-2-one] |  | IC50 [1]: < 50 nM; IC50 [2]: > 1000 nM; IC50 [3]: > 1000 nM; IC50 [4]: > 1000 nM
8 | COCCOCc1ccc(Cl)c(C2(C)C(=O)N(Cc3ccc(OC)cc3OC)c3ccc(Cl)cc32)c1 (stereo not shown) | 114 | 
9 | COC(=O)C1CCCCN1C(=O)c1ccc(Cl)c(C2(C)C(=O)N(Cc3ccc(OC)cc3OC)c3ccc(Cl)cc32)c1 (stereo not shown) | 116 | 
10 | CCN(C(=O)c1ccc(Cl)c(C2(C)C(=O)N(Cc3ccc(OC)cc3OC)c3ccc(Cl)cc32)c1)C(C)C (stereo not shown) | 102.8 | 
11 | CCNC(=O)c1ccc(Cl)c(C2(C)C(=O)N(Cc3ccc(OC)cc3OC)c3ccc(Cl)cc32)c1 (stereo not shown) (hydrate or solvate) | 248 | 
12 | COc1ccc(CN2C(=O)C(C)(c3cc(N(C)S(=O)(=O)c4ccccc4)ccc3Cl)c3cc(Cl)ccc32)c(OC)c1 (stereo not shown) (hydrate or solvate) | 73 | 
13 | COCC(=O)Nc1ccc(Cl)c(C2(C)C(=O)N(Cc3ccc(OC)cc3OC)c3ccc(Cl)cc32)c1 (stereo not shown) | 191 | 
14 | COc1ccc(CN2C(=O)C(C)(c3ccccc3Cl)c3cc(Cl)ccc32)c(OC)c1 (single isomer, unassigned) [dextrorotatory enantiomer of Example 1, 5-Chloro-3-(2-chlorophenyl)-1-(2,4-dimethoxybenzyl)-3-methylindolin-2-one] |  | agonist or antagonist nature [5]: antagonist; IC50 ([5]; read-out: IC50 as antagonist): 3.2 ± 1.9 nM
15 | CCN(CCc1ccccc1)C(=O)c1ccc(Cl)c(C2(C)C(=O)N(Cc3ccc(OC)cc3OC)c3ccc(Cl)cc32)c1 (stereo not shown) | 111.7 | 
